Experimental data from US20080220497A1, “Modulation of protein functionalities” (priority 2003, published 2008).

Assays:
p38-alpha kinase = p38-alpha kinase (Homo sapiens, UniProt Q16539); settings: time-dependent if IC50 values decrease with reaction time (more than two-fold in four hours)
Protocol: This dilution can be done automatically on a Tecan (or similar) robotic workstation or performed manually. • 3. […] This step can be performed automatically on a Tecan (or similar) robotic workstation or performed manually. • 4. Incubate at 30° C. or room temp for 2 h, depending on protein stability. • 5. Read at emission wavelength 420 nm upon excitation at 340 nm.

[1] = molecular target: T1, unphosphorylated p38-alpha kinase (Homo sapiens, UniProt Q16539, DEL261-261); test: Thermal denaturation of unphosphorylated p38-alpha kinase; format: binding; settings: for ΔTm (° C.) relative to unphosphorylated apo p38: […] p38-alpha kinase, 15 μM small molecule
T1 construct: 48 (6×His-TEV tag, full length); 6×His-TEV tag (N); purchased Decode Genetics, Inc; host or cells: E. coli
Excerpt: (§1) Denaturation was monitored by measuring the absolute absorbance of the solutions at an appropriate wavelength (typically 230 nm and 240 nm) as a function of temperature. As the protein became denatured, additional UV absorbing functional groups became exposed causing an increase in absorbance at the melting temperature. […] The thermal data were collected using Agilent spectrophotometers and ChemStation UV/Vis Thermal Denaturation software.
The final protein and buffer solution was mixed gently using a pipetter to minimize denaturing due to over aggressive mixing. The final solution was transferred to a 50 μL cuvette for analysis.
(§2) The final solution was transferred to a 50 μL cuvette for analysis.
(§3) A first derivative calculation with data smoothing was applied to the resulting data to report the point of inflection as the melting temperature.

[2] = molecular target: T1, unphosphorylated p38-alpha kinase; test: Fluorescence affinity assay, unphosphorylated p38-alpha kinase; format: binding; settings: for Ratio IC50s: doubly phosphorylated vs unphosphorylated p38-alpha, >1.0 = preference for unphosphorylated form; for IC50: ~24 nM enzyme, 1.0 uM SKF-86002, read-out: FP IC50 U-p38-alpha
Excerpt: (§4) This fluorescence affinity assay is utilized in an affinity-based screen to identify small molecules which bind into switch control pockets of protein kinases. Binding of small molecule switch inhibitors displaces the switch control ligand phenylalanine of the DFG motif into an orientation which sterically blocks the ATP pocket. Such inhibitor-induced blockade of the ATP pocket is registered as an inhibition of binding of the fluoroprobe into the ATP pocket.
(§5) • 1. p38-alpha kinase • a. […] Polarstar Optima plate reader (BMG)
(§6) • 1. […] This dilution can be done automatically on a Tecan (or similar) robotic workstation or performed manually. • 3. Mix Solution A with the diluted compound solutions following Step 3 of Table 22. This step can be performed automatically on a Tecan (or similar) robotic workstation or performed manually. • 4. Incubate at 30° C. or room temp for 2 h, depending on protein stability. • 5. Read at emission wavelength 420 nm upon excitation at 340 nm.
The reaction was initiated by addition of the enzyme. […] By comparison of RFU (relative fluorescence units) values with that of a control (in the absence of small molecule modulators), the percentage of inhibition at each concentration of the small molecules was calculated. IC50 values for the small molecule modulators were calculated from the % inhibition values obtained at a range of concentrations of the small molecule modulators using Prism (available from GraphPad, Inc.). When time-dependent inhibition was assessed, the plate was read at multiple reaction times such as 0.5, 1, 2, 3, 4 and 6 hours. The IC50 values were calculated at each time point. An inhibition was assigned as time-dependent if the IC50 values decrease with the reaction time (more than two-fold in four hours).
(§7) A ratio greater than 1.0 indicates a preference for inhibiting the unphosphorylated form of p38-alpha kinase relative to the doubly phosphorylated form. A ratio less than 1.0 indicates a preference for inhibiting the doubly phosphorylated form of p38-alpha kinase relative to the unphosphorylated form.

[3] = molecular target: T2, doubly phosphorylated p38-alpha kinase (Homo sapiens, UniProt Q16539); test: Thermal denaturation of doubly phosphorylated p38-alpha kinase; format: binding; settings: for ΔTm (° C.) relative to doubly phosphorylated p38: 0.5 μM p38-alpha kinase, 20 μM small molecule
T2 construct: 6xHis ([…], seen only in the listing) (C); purchased Roche Applied Diagnostics
Protocol: as §1
The final concentration was 0.5 μM p38-alpha kinase and 20 μM small molecule. The final protein and buffer solution was mixed gently using a pipetter to minimize denaturing due to over aggressive mixing. The final solution was transferred to a 50 μL cuvette for analysis.
The protein and buffer solution was mixed gently using a pipetter to minimize denaturing due to over aggressive mixing. The final solution was transferred to a 50 μL cuvette for analysis.
as §3

[4] = molecular target: T2, doubly phosphorylated p38-alpha kinase; test: Fluorescence affinity assay, doubly phosphorylated p38-alpha kinase; format: binding; settings: ~24 nM enzyme; 1.0 uM SKF-86002; read-out: FP IC50 P-p38-alpha
Excerpt: as §4, §5
as §6, with “nm. […]” for “nm.”
as §7

V599E Braf kinase = molecular target: T3, V599E Braf kinase (Homo sapiens, UniProt P15056, V600E); test: Thermal denaturation of oncogenic V599E Braf kinase; format: binding; settings: 1.4 μM V599E Braf kinase, 20 μM small molecule; read-out: ΔTm (° C.) relative to unphosphorylated B-Raf(V599E)
T3 construct: 6×His-tag (N); made in house; host or cells: Sf9 insect cells (baculovirus)
Protocol: as §1, §2, §2, §3

Abl kinase = test: Thermal denaturation of Abl kinase; format: binding, human; settings: 1 μM Abl kinase, 20 μM small molecule
Protocol: as §1
5 μL of 40 μM Abl kinase was mixed with 195 μL of the small molecule/buffer solution. The final concentration was 1 μM Abl kinase and 20 μM small molecule. The final protein and buffer solution was mixed gently using a pipetter to minimize denaturing due to over aggressive mixing. The final solution was transferred to a 50 μL cuvette for analysis.
Test solutions containing only the Abl kinase were prepared as follows: 5 μL of 40 μM Abl kinase was mixed with 195 μL Buffer to give a concentration of 1 μM Abl kinase in Buffer. The protein and buffer solution was mixed gently using a pipetter to minimize denaturing due to over aggressive mixing. The final solution was transferred to a 50 μL cuvette for analysis.
as §3

T2 sequence (Q16539 with tags, fused parts or gaps): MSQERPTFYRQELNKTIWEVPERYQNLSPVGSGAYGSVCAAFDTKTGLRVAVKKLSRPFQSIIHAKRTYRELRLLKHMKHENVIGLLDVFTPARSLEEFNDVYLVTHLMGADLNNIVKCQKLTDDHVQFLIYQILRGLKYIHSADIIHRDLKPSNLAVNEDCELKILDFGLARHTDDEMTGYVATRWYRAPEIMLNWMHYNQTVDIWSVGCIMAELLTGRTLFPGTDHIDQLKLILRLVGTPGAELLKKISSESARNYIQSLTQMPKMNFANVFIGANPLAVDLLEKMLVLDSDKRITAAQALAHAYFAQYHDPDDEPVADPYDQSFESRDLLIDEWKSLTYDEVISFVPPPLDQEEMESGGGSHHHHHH
T1 sequence (Q16539 with tags, fused parts or gaps DEL261-261): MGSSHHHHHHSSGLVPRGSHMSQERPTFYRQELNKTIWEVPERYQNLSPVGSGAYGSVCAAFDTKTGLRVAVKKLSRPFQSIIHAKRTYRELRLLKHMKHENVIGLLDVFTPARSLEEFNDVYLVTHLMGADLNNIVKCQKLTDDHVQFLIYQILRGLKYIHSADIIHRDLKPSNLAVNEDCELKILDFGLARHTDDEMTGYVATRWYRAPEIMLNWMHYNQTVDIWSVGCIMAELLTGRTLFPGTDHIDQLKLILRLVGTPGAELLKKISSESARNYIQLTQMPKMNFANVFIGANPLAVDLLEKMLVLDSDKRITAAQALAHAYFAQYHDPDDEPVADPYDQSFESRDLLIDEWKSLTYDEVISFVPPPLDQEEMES
Sequence of p38-alpha kinase (Q16539 whole entry): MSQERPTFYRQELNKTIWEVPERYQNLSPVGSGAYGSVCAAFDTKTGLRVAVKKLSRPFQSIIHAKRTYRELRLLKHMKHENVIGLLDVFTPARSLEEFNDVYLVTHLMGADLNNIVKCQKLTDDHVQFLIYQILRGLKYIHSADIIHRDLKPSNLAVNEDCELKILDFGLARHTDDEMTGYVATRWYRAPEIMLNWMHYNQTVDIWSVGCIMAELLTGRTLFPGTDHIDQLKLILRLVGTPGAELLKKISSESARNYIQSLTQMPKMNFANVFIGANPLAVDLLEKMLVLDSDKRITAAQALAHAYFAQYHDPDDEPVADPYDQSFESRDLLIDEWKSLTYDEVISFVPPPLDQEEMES
T3 sequence (P15056 with tags, fused parts or gaps V600E): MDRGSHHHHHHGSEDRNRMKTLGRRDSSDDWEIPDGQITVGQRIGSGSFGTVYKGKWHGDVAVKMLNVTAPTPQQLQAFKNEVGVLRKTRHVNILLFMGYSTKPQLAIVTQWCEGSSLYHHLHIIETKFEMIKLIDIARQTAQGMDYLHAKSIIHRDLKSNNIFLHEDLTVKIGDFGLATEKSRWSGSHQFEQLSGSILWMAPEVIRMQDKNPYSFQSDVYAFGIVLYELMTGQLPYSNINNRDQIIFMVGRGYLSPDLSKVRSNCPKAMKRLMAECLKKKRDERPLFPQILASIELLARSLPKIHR

| Compound | ΔTm (° C.) relative to unphosphorylated apo p38 [1] [°C] | Ratio IC50s [2] | IC50 [2] [nM] | ΔTm (° C.) relative to doubly phosphorylated p38 [3] [°C] | IC50 [4] [nM] | further results |
| --- | --- | --- | --- | --- | --- | --- |
| CC1(C(=O)O)CC2(C)CC(C)(C1)C(=O)N(Cc1cccc(-n3nc(C(C)(C)C)cc3NC(=O)Nc3cccc4ccccc34)c1)C2=O (stereo not shown) [Example 11] |  |  |  |  |  | Time-dependent (p38-alpha kinase): No |
| CC1(C(=O)O)CC2(C)CC(C)(C1)C(=O)N(Cc1cccc(-n3nc(C(C)(C)C)cc3NC(=O)Nc3ccc(Cl)cc3)c1)C2=O (stereo not shown) [Example 12] |  |  |  |  |  | Time-dependent (p38-alpha kinase): No |
| CC(C)(C)c1cc(NC(=O)Nc2cccc3ccccc23)n(-c2cccc(CC(=O)N3CCOCC3)c2)n1 [Example 21, 1-(3-tert-butyl-1-(3-(2-morpholino-2-oxoethyl)phenyl)-1H-pyrazol-5-yl)-3-(naphthalen-1-yl)urea] |  |  |  |  |  | Time-dependent (p38-alpha kinase): Yes |
| CC(C)(C)c1cc(NC(=O)Nc2ccc(Cl)cc2)n(-c2ccc(CO)cc2)n1 [Example 61] | 8.5 | 0.8 | 24 | 5.9 | 19 |  |
| O=C(Nc1cccc(Cl)c1Cl)Nc1cc(-c2ccccc2)nn1-c1cccc(CO)c1 [Example 63] | 9.4 |  | 28 | 5.0 | 85 |  |
| CC(C)(C)c1cc(NC(=O)Nc2cccc(Cl)c2Cl)n(-c2cccc(CC(N)=O)c2)n1 [Example 69] |  |  |  |  |  | Thermal denaturation assay ΔTm ([1]; unphosphorylated p38-alpha kinase): 13.10 °; Thermal denaturation assay ΔTm ([3]; phosphorylated p38-alpha kinase): 9.1 ° |
| CC1(O)CCN(C(=O)Cc2ccc(-n3nc(C(C)(C)C)cc3NC(=O)Nc3cccc(Cl)c3Cl)cc2)CC1 [Example 70] | 12.6 | 2.3 | 26 | 8.7 | 26 |  |
| CC(C)(C)c1cc(NC(=O)Nc2cccc3ccccc23)n(-c2cccc(CO)c2)n1 [Example 71] | 10.9 | 1.1 | 17 | 9.6 | 19 |  |
| CC(C)(C)c1cc(NC(=O)Nc2cccc3ccccc23)n(-c2ccc(C(O)C(F)(F)F)cc2)n1 (stereo not shown) [Example 73] | 8.9 |  |  | 5.9 |  |  |
| CC(C)(C)c1cc(NC(=O)Nc2cccc3ccccc23)n(-c2cccc(C(C)(C)O)c2)n1 [Example 75] | 8.2 | 0.7 | 165 | 5.6 | 119 |  |
| CC(C)(C)c1cc(NC(=O)Nc2cccc(Cl)c2Cl)n(-c2ccc(CC(N)=O)cc2)n1 [Example 76] | 13.1 |  |  | 9.4 | 26 |  |
| NC(=O)Cc1cccc(-n2nc(-c3ccccc3)cc2NC(=O)Nc2cccc(Cl)c2Cl)c1 [Example 77] | 8.0 | 1.1 | 25 | 5.3 | 57 |  |
| NC(=O)Cc1cccc(-n2nc(-c3cscn3)cc2NC(=O)Nc2cccc(Cl)c2Cl)c1 [Example 78] | 6.7 | 1.5 | 233 | 3.9 | 195 |  |
| CNC(=O)Cc1cccc(-n2nc(C(C)(C)C)cc2NC(=O)Nc2cccc(Cl)c2Cl)c1 [Example 79] |  |  |  |  |  | ΔTm at 20 µM (V599E Braf kinase): 12 °C |
| CC(C)(C)c1cc(NC(=O)Nc2cccc(Cl)c2Cl)n(-c2ccc3c(c2)CN(S(C)(=O)=O)CC3)n1 [Example 80] |  |  |  |  |  | ΔTm (° C.) relative to unphosphorylated Abl (Abl kinase): 2.3 °C; ΔTm at 20 µM (V599E Braf kinase): 14.6 °C |
| CC(C)(C)c1cc(NC(=O)Nc2cccc(Cl)c2Cl)n(-c2ccc3c(c2)CCC(=O)N3)n1 [Example 81] |  |  |  |  |  | ΔTm at 20 µM (V599E Braf kinase): 17.3 °C |
| CC(C)(C)c1cc(NC(=O)Nc2cccc(Cl)c2Cl)n(-c2ccc3c(c2)CCNC3=O)n1 [Example 82] |  |  |  |  |  | ΔTm at 20 µM (V599E Braf kinase): 13.5 °C |
| CC(C)(C)c1cc(NC(=O)Nc2cccc3ccccc23)n(-c2cccc(C(C)(C)O)c2)n1 [Example 83] |  |  |  |  |  | ΔTm at 20 µM (V599E Braf kinase): 14.9 °C |
| CC(C)(C)c1cc(NC(=O)Nc2cccc(Cl)c2Cl)n(-c2ccc(CC(N)=O)cc2)n1 [Example 84] |  |  |  |  |  | ΔTm at 20 µM (V599E Braf kinase): 12.5 °C |
| CC(C)(C)c1cc(NC(=O)Nc2ccc(Cl)cc2)n(-c2cccc(CO)c2)n1 [Example 85] |  |  |  |  |  | ΔTm at 20 µM (V599E Braf kinase): 2.9 °C |
| CC(C)(C)c1cc(NC(=O)Nc2cccc(Cl)c2Cl)n(-c2cc(CNC(=O)NS(C)(=O)=O)c3ccccc3c2)n1 [Example 86] |  |  |  |  |  | ΔTm (° C.) relative to unphosphorylated Abl (Abl kinase): 4.0 °C |
| CC(C)(C)c1cc(NC(=O)Nc2cccc(Cl)c2Cl)n(-c2cc(CO)c3ccccc3c2)n1 [Example 87] |  |  |  |  |  | ΔTm (° C.) relative to unphosphorylated Abl (Abl kinase): 3.6 °C |
| CC(=O)N1CCc2ccc(-n3nc(C(C)(C)C)cc3NC(=O)Nc3cccc(Cl)c3Cl)cc2C1 [Example 88] |  |  |  |  |  | ΔTm (° C.) relative to unphosphorylated Abl (Abl kinase): 1.2 °C |
| CC(C)(C)c1cc(NC(=O)Nc2cccc(Cl)c2Cl)n(-c2ccc3c(c2)C(N)=NCC3)n1 [Example 89] |  |  |  |  |  | ΔTm (° C.) relative to unphosphorylated Abl (Abl kinase): 1.8 °C |
| CC(C)(C)c1cc(NC(=O)Nc2cccc(Cl)c2Cl)n(-c2cccc(C(=N)N)c2)n1 [Example 90] |  |  |  |  |  | ΔTm (° C.) relative to unphosphorylated Abl (Abl kinase): 1.3 °C |
| COc1ccc(-n2nc(C(C)(C)C)cc2NC(=O)Nc2cccc(Cl)c2Cl)cc1 [Example 91] |  |  |  |  |  | ΔTm (° C.) relative to unphosphorylated Abl (Abl kinase): 12.5 °C |
| CC(C)(C)c1cc(NC(=O)Nc2cccc3ccccc23)n(-c2ccc(OCC(=O)O)cc2)n1 [Example 92] |  | 3.1 | 52 |  | 160 |  |
| CC(C)(C)c1cc(NC(=O)Nc2cccc(Oc3cccnc3)c2)n(-c2cccc(CC(N)=O)c2)n1 [Example 93, 1-(1-(3-(2-amino-2-oxoethyl)phenyl)-3-tert-butyl-1H-pyrazol-5-yl)-3-(3-(pyridin-3-yloxy)phenyl)urea] |  | 2.4 | 16 |  | 39 |  |
| Cc1ccc(NC(=O)Nc2cc(C(C)(C)C)nn2-c2ccc3c(c2)CCNC3)cc1Nc1ncccn1 [Example 94, 1-(3-tert-butyl-1-(1,2,3,4-tetrahydroisoquinolin-6-yl)-1H-pyrazol-5-yl)-3-(4-methyl-3-(pyrimidin-2-ylamino)phenyl)urea] |  | 1.9 | 10 |  | 19 |  |
| CC(C)(C)c1cc(NC(=O)Nc2cccc(Cl)c2Cl)n(-c2ccc(CC(=O)N3CCS(=O)(=O)CC3)cc2)n1 [Example 96] |  | 3.0 | 7 |  | 8 |  |
